Measured values: US20070098665A1, “Effects of skin surface temperature on the epidermal permeability barrier homeostasis” (Shiseido Company, Ltd., priority 2005, published 2007)

Assays:
hairless mice skin [1] = experiment: Barrier recovery (TEWL) after tape stripping with topical application of reagent; assay type: in vivo, hairless mice (HR-1); details: for effect on barrier recovery (percent recovery of TEWL): topical, 100 μl aqueous solution containing 1 μM of reagent immediately after tape stripping, TEWL at 1, 3 and 6 hours, vs water control, FIG. 3
Procedure: All experiments were performed on 7-10-week old male hairless mice (HR-1, Hoshino, Japan). All procedures for measuring of skin barrier function, disrupting the barrier and applying the sample were carried out under anesthesia. All experiments were approved by the Animal Research Committee of the Shiseido Research Center in accordance with the National Research Council Guide (National Research Council 1996). Human skin experiments were carried out on the inner forearm of healthy males who gave their informed consent. 4 alpha-phorbol 12,13-[…] (4 alpha-PDD) and Rutenium-Red were purchased from Sigma (Sigma, St.Louis, Mich. USA). Capsaicin, capsazepine, and 2-aminoethoxydiphenyl borate (2-APB) were purchased from Tocris (TOCRIS, Bristol, UK). Camphor was purchased Wako (Wako, Osaka, Japan). Capsaicin is an agonist of TRPV1 and capsazepine is an antagonist of TRPV1 (Caterina et al. 1997). Both 2-APB and camphor are activator of TRPV3 (Chung et al. 2003)(Moquich et al. 2005). 4 alpha-PDD is an activator of TRPV4 and Rutenium-Red is a blocker of TRPV4 (Watanabe et al. 2002).
(§1) Permeability barrier function was evaluated by measurement of transepidermal water loss (TEWL) with an electric water analyzer, as described previously (Denda et al. 1998). For barrier recovery experiments, both sides of flank skin were treated with repeated tape stripping procedure until the TEWL reached 7-10 mg per cm^2 per h, as described previously (Denda et al. 1998). Immediately after barrier disruption, 100 μl of an aqueous solution containing 1 μM of reagent or water alone (control) was applied to the treated area. […] The areas were covered with plastic membranes for 15 min and then the membranes were removed. Two points in one side of flank were measured and 4-8 mice were used to evaluate the effects of each treatment. We always disrupted the barrier within 7:00 AM to 8:00 AM and carried out the following measurements of the barrier repair to avoid the deviation of the repair rate due to the influence of circadian rhythm (Denda et al. 2000). TEWL was then measured over the same sites at 1, 3 and 6 hours after barrier disruption. The barrier recovery results are expressed as percent of recovery, because of variations from day to day in the extent of barrier disruption. In each animal, the percentage of recovery was calculated by the following formula: (TEWL immediately after barrier disruption−TEWL at indicated time point)/(TEWL immediately after barrier disruption−baseline TEWL)×100%. All experiments were performed on 7 to 10-week-old male hairless mice (HR-1, Hoshino, Japan). All procedures of the measurement of skin barrier function, disruption of the barrier and application of test sample were carried out under anesthesia.
The results are expressed as the mean ± SD. Statistical differences between two groups were determined by a two-tailed Student's t-test. In the case of more than 2 groups, differences were determined by ANOVA test (Fisher's protected least significant difference).

hairless mice skin [2] = experiment: Barrier recovery (TEWL) after tape stripping with applied heat plus topical reagent; assay type: in vivo, hairless mice (HR-1); details: topical application, FIG. 4
Procedure: as §1, with “We always disrupted the barrier within 7:00 AM to 8:00 AM and carried out the following measurements of the barrier repair to avoid the deviation of the repair rate due to the influence of circadian rhythm (Denda et al. 2000).” left out, “All experiments were performed on 7 to 10-week-old male hairless mice (HR-1, Hoshino, Japan). All procedures of the measurement of skin barrier function, disruption of the barrier and application of test sample were carried out under anesthesia.” left out
The results are expressed as the mean ± SD. Statistical differences between two groups were determined by a two-tailed Student's t-test. […]

Compound	effect on barrier recovery (percent recovery of TEWL) (hairless mice skin [1])	effect on the delay of barrier recovery after capsaicin application (hairless mice skin [1]; topical application on hairless mice skin after tape stripping, as worded in the summary b8)	effect on the delay of the barrier recovery by heat 42° C. (hairless mice skin [2]; heat 42° C. applied for one hour after tape stripping)	effect on the acceleration of the barrier recovery by heat 36° C. (hairless mice skin [2]; heat 36° C. applied for one hour after tape stripping)
NCCOB(c1ccccc1)c1ccccc1 [2-aminoethoxydiphenyl borate]	did not affect the barrier recovery rate			
CCCCCCCCCC(=O)O[C@@H]1[C@@H](C)[C@@]2(O)[C@@H](C=C(CO)C[C@@]3(O)C(=O)C(C)=C[C@@H]23)[C@@H]2C(C)(C)[C@]12OC(=O)CCCCCCCCC [4 alpha-PDD, 4 alpha-phorbol 12,13-didecanoate]	accelerated the barrier recovery			
CC12CCC(CC1=O)C2(C)C (stereo not drawn) [camphor, Camphor]	did not affect the barrier recovery rate			
COc1cc(CNC(=O)CCCC/C=C/C(C)C)ccc1O [capsaicin, Capsaicin]	delayed the barrier recovery			
Oc1cc2c(cc1O)CN(C(=S)NCCc1ccc(Cl)cc1)CCC2 [capsazepine]	accelerated the barrier repair	the delay was blocked	blocked the delay of the barrier recovery by heat 42 °C	
Rutenium-Red	delayed the recovery			blocked the acceleration of the barrier recovery by heat 36 °C
